The test system of data set [1] is Enterococcus faecalis. Description: Antibacterial activity against Streptococcus faecalis incubated for 8 to 12 hrs by Alamar blue reagent based microdilution broth method. The class given is functional. The conditions noted are these: time 8-12 hrs.
Data set [2] deals with Salmonella typhi. Description: Antibacterial activity against Salmonella typhi incubated for 8 to 12 hrs by Alamar blue reagent based microdilution broth method. It counts as functional, Salmonella enterica subsp. enterica serovar Typhi. The conditions noted are these: Salmonella enterica; time 8-12 hrs.
Data set [3] concerns Pseudomonas aeruginosa. The experiment in a line: Antibacterial activity against Pseudomonas aeruginosa incubated for 8 to 12 hrs by Alamar blue reagent based microdilution broth method. It counts as functional. The settings on record: time 8-12 hrs. (The colour change of resazurin is a common sign of viable cells or microbes.)
Data set [4] has as its system Bacillus subtilis. Description: Antibacterial activity against Bacillus subtilis incubated for 8 to 12 hrs by Alamar blue reagent based microdilution broth method. The class given is functional. The conditions noted are these: time 8-12 hrs.
For data set [5], the system named is Staphylococcus aureus. Description: Antibacterial activity against Staphylococcus aureus TISTR 517 incubated for 8 to 12 hrs by Alamar blue reagent based microdilution broth method. It counts as functional. The conditions noted are these: time 8-12 hrs.
For data set [6], the system named is Staphylococcus aureus. The experiment in a line: Antibacterial activity against methicillin sensitive Staphylococcus aureus JCM 2874 incubated for 20 hrs by Mueller-Hinton broth based agar based dilution method. The class given is functional.
In data set [7] the test system is Staphylococcus aureus. The experiment in a line: Antibacterial activity against methicillin resistant Staphylococcus aureus incubated for 20 hrs by Mueller-Hinton broth based agar based dilution method. It counts as functional.
Data set [8] relates to Enterococcus faecalis. The experiment in a line: Antibacterial activity against Enterococcus faecalis JCM 7783 incubated for 20 hrs by Mueller-Hinton broth based agar based dilution method. The class given is functional.
For data set [9], the system named is Enterococcus faecalis. Description: Antibacterial activity against Enterococcus faecalis JU 1856 incubated for 20 hrs by Mueller-Hinton broth based agar based dilution method. The class given is functional.
The test system of data set [10] is Enterococcus faecalis. The experiment in a line: Antibacterial activity against Enterococcus faecalis JU 1782 incubated for 20 hrs by Mueller-Hinton broth based agar based dilution method. It counts as functional.
Data set [11] deals with Bacillus subtilis. Description: Antibacterial activity against Bacillus subtilis PCI 219 incubated for 20 hrs by Mueller-Hinton broth based agar based dilution method. The class given is functional.
Data set [12] concerns Micrococcus luteus. The experiment in a line: Antibacterial activity against Micrococcus luteus ATCC 9341 incubated for 20 hrs by Mueller-Hinton broth based agar based dilution method. It counts as functional.
Data set [13] relates to Staphylococcus aureus. Description: Antibacterial activity against Staphylococcus aureus TISTR 1466 by Mueller-Hinton broth based two-fold serial dilution method. The class given is functional.
The subject of data set [14] is Staphylococcus aureus. The experiment in a line: Antibacterial activity against methicillin resistant Staphylococcus aureus SK1 by Mueller-Hinton broth based two-fold serial dilution method. It counts as functional.
Data set [15] relates to Staphylococcus aureus. Description: Antibacterial activity against Staphylococcus aureus. The class given is functional.
The subject of data set [16] is Micrococcus luteus. The experiment in a line: Antibacterial activity against Micrococcus luteus. The class given is functional.
Data set [17] relates to Pseudomonas aeruginosa. Description: Antibacterial activity against Pseudomonas aeruginosa. The class given is functional.
For data set [18], the system named is Escherichia coli. Description: Antibacterial activity against Escherichia coli. The class given is functional.
Data set [19] deals with Staphylococcus aureus. The experiment in a line: Antibacterial activity against methicillin resistant Staphylococcus aureus. The class given is functional.
For data set [20], the system named is Staphylococcus epidermidis. Description: Antibacterial activity against Staphylococcus epidermidis. It counts as functional.
The nature of data set [21]: Lipophilicity, logP of the compound. The class given is physicochemical. The conditions noted are these: octanol/water.
The subject of data set [22] is Bacillus cereus. Description: Antibacterial activity against Bacillus cereus TISTR 688 incubated for 16 to 18 hrs by Mueller-Hinton broth based two-fold serial dilution method. It counts as functional. The conditions noted are these: time 16-18 hrs.
Data set [23] has as its system Staphylococcus epidermidis. Description: Antibacterial activity against Staphylococcus epidermidis ATCC 12228 incubated for 16 to 18 hrs by Mueller-Hinton broth based two-fold serial dilution method.
Data set [24] has as its system Bacillus subtilis. Description: Antibacterial activity against Bacillus subtilis TISTR 008 by Mueller-Hinton broth based two-fold serial dilution method. It counts as functional.
The subject of data set [25] is Staphylococcus epidermidis. Description: Antibacterial activity against Staphylococcus epidermis ATCC 12228 by Mueller-Hinton broth based two-fold serial dilution method. The class given is functional.
The test system of data set [26] is Bacillus cereus. Description: Antibacterial activity against Bacillus cereus TISTR 688 by Mueller-Hinton broth based two-fold serial dilution method. It counts as functional.
The subject of data set [27] is Micrococcus luteus. The experiment in a line: Antibacterial activity against Micrococcus luteus TISTR 884 by Mueller-Hinton broth based two-fold serial dilution method. It counts as functional.
The subject of data set [28] is Salmonella typhimurium. Description: Antibacterial activity against Salmonella typhimurium TISTR 292 by Mueller-Hinton broth based two-fold serial dilution method. It counts as functional, Salmonella enterica subsp. enterica serovar Typhimurium. The conditions noted are these: Salmonella enterica.
Data set [29] has as its system Vibrio vulnificus. The experiment in a line: Antibacterial activity against Vibrio vulnificus MCCC E1758. It counts as functional.
In data set [30] the test system is Staphylococcus aureus. The experiment in a line: Antibacterial activity against Staphylococcus aureus NIHJ 209p. The class given is functional.
For data set [31], the system named is Staphylococcus aureus. Description: Antibacterial activity against methicillin resistant Staphylococcus aureus by liquid dilution method. The class given is functional.
In data set [32] the test system is Vibrio campbellii. Description: Antibacterial activity against Vibrio campbellii MCCC E333. It counts as functional.
For data set [33], the system named is Escherichia coli. The experiment in a line: Antibacterial activity against Escherichia coli NIHJ K 12. It counts as functional.
In data set [34] the test system is Vibrio rotiferianus. Description: Antibacterial activity against Vibrio rotiferianus MCCC E385. The class given is functional.

SMILES strings stand for the structures. Values after ≈ are worked out from the molar mass of the structure shown.

As for `CC(C)=CCc1c2c(c(O)c3c(=O)c4ccc(O)c(O)c4oc13)C=CC(C)(C)O2`, the MIC in data set [1] stood at 1.1 µg/mL (≈ 2.79 µM); in [2], 1.1 µg/mL (≈ 2.79 µM); in data set [3] it was 9.3 µg/mL (≈ 23.6 µM); in data set [4], 1.1 µg/mL (≈ 2.79 µM); in data set [5], 1.1 µg/mL (≈ 2.79 µM).
In the case of `CC(C)=CCc1c(O)cc(O)c2c(=O)c3c(CC=C(C)C)c(O)ccc3oc12` [GERONTOXANTHONE H], the MIC in data set [6], in data set [7], in data set [8], in [9], in data set [10] and in data set [11] was 1.56 µg/mL (≈ 4.1 µM) in each case. Further, in data set [12], the lowest concentration to inhibit growth (MIC) was 1.56 µg/mL (≈ 4.1 µM).
Turning to `CC(C)=CCc1c(O)cc2oc3c(c(=O)c2c1O)C[C@H](CC=C(C)C)C(=O)[C@@]3(O)CC=C(C)C`, the MIC in data set [13] and in data set [14] was 2 µg/mL (≈ 4.29 µM) throughout.
With `COc1c(O)cc2oc3cc(O)c(CC=C(C)C)c(O)c3c(=O)c2c1CC=C(C)C` [MANGOSTIN], the minimum inhibitory concentration (MIC) was found to be 3.13 µg/mL (≈ 7.63 µM) in data set [15]; 1 µg/mL (≈ 2.44 µM) in data set [16]; 12.5 µg/mL (≈ 30.5 µM) in [17]; 12.5 µg/mL (≈ 30.5 µM) in data set [18]; 6.25 µg/mL (≈ 15.2 µM) in [19]; 1.56 µg/mL (≈ 3.8 µM) in data set [20].
The compound `COc1cc2c(=O)c3c(O)cccc3oc2c(O)c1OC` yielded a log partition coefficient (logP) in data set [21] of 2.09. The minimal inhibitory concentration (MIC) in data set [22] and in data set [23] was 16 µg/mL (≈ 55.5 µM) in each case.
With `C=CC(C)(C)c1c(O)cc2oc3c(O)c4c(cc3c(=O)c2c1O)C=CC(C)(C)O4` [GERONTOXANTHONE B], the results for the MIC in data set [7], in [11] and in [12] were 25 µg/mL (≈ 63.4 µM), greater than 25 µg/mL and 12.5 µg/mL (≈ 31.7 µM), respectively.
On to `COc1c(O)cc2oc3cc(O)c(CC=C(C)C)c(O)c3c(=O)c2c1C/C=C(\C)CCC=C(C)C` [COWANIN], for which the minimal inhibitory concentration (MIC) in data set [24] turned out to be 4 µg/mL (≈ 8.36 µM); in data set [13], 32 µg/mL (≈ 66.9 µM); in data set [25] it was 2 µg/mL (≈ 4.18 µM); in data set [26], 32 µg/mL (≈ 66.9 µM); in data set [27] it was 4 µg/mL (≈ 8.36 µM); in [14], 2 µg/mL (≈ 4.18 µM). It took 64 µg/mL (≈ 134 µM) to inhibit growth in data set [28] (MIC).
As to `CC(C)=CCc1c(O)cc2oc3c(CC=C(C)C)c(O)c(O)c(CC=C(C)C)c3c(=O)c2c1O` [GARCINONE E], the MIC was found to be 15.6 µg/mL (≈ 33.6 µM) in data set [29]; 12.5 µg/mL (≈ 26.9 µM) in [30]; 25 µg/mL (≈ 53.8 µM) in data set [31]; 31.2 µg/mL (≈ 67.2 µM) in data set [32]; 25 µg/mL (≈ 53.8 µM) in [33]; 15.6 µg/mL (≈ 33.6 µM) in [34].

Broadly, the MIC is the least concentration at which growth counts as inhibited. Read a high MIC as weaker potency. One may read the logP as the decadic logarithm of the partition coefficient of the neutral form, usually between octanol and water.
